Measured values: article PMC10988555, “Exploiting Co(III)-Cyclopentadienyl Complexes To Develop Anticancer Agents” (Inorganic Chemistry, 2024)

What was measured:
[1] = system: HCT116 (human colorectal carcinoma) cell line; test: Antiproliferative activity, MTS assay, HCT116; type: cell-based; conditions: for IC50: 48 h exposure, MTS assay; for Selectivity index (SI) of ligands, HCT116: Table S3, values with * calculated taking fibroblast IC50 as 50 µM (minimal value)
Protocol: (§1) Human colorectal carcinoma cell line (HCT116), human breast cancer cell lines (MDA-MB-231 and MCF-7), and normal human primary dermal fibroblasts neonatal (PCS-201-010) cell line were grown in DMEM (Dulbecco’s modified Eagle’s medium) (Invitrogen Corp., Grand Island, NY, USA) supplemented with 10% (v/v) fetal bovine serum and 1% (v/v) antibiotic/antimycotic solution (Invitrogen Corp.). The human ovarian carcinoma (A2780) cell line was cultivated using RPMI (Roswell Park Memorial Institute) medium supplemented as in DMEM medium. The supplemented medium is named a complete medium. Cells were grown in an incubator with a humidified atmosphere at 5% (v/v) CO2 and 37 °C. All cell lines were purchased from ATCC (ATCC, American Type Culture Collection).
(§2) The evaluation of the cytotoxic potential of complexes 1–4 was obtained through in vitro measurements of the antiproliferative activity of these complexes. Cells were plated in 96-well plates at 7.5 × 10^4 cells/mL and incubated at 37 °C with 5% (v/v) CO2. After 24 h, the culture medium was replaced with fresh medium (100 μL) containing 0.1–50 μM of the different complexes and incubated for 48 h in tumor cell lines or containing 0.1–100 μM of the different complexes and incubated for 48 h in fibroblasts. […] The fibroblast cell line was used as a control of the cytotoxicity of the complexes for healthy cells. Cell viability was evaluated using Cell Titer 96 Aqueous Non-Radioactive Cell Proliferation Assay (Promega, Madison, WI, USA) using 3-(4,5-dimethylthiazol-2-yl)-5-(3-carboxymethoxyphenyl)-2-(4-sulfophenyl)-2H-tetrazolium inner salt (MTS), as described previously.[60] In metabolically active cells, enzymes present in the mitochondria catalyze a reaction in which NADPH/NADH is produced. These enzymes reduce the MTS reagent into a brownish product, Formazan, which can be quantified by measuring the absorbance at 490 nm. The quantity of formazan produced is directly proportional to the number of viable cells in the culture. This quantification was executed with a Biorad microplate reader Model 680 (Bio-Rad, Hercules, CA, USA). Half maximal inhibitory concentration (IC50) was calculated using GraphPad Prism 6 (GraphPadSoftware). We have calculated the ratio between the IC50 of fibroblasts and the IC50 of HCT116, A2780, MDA-MB-231, or MCF-7 cell lines for complexes 1–4 that was named herein as the Selectivity index (SI). To ensure the solubility of the complexes in all biological assays, complex solutions were freshly prepared and well solubilized before addition to the cells.

[2] = system: A2780 (human ovarian carcinoma) cell line; test: Antiproliferative activity, MTS assay, A2780; type: cell-based; conditions: for IC50: 48 h exposure, MTS assay; for Selectivity index (SI) of ligands, A2780: Table S3, values with * calculated taking fibroblast IC50 as 100 µM (minimal value)
Protocol: as §1, §2

[3] = system: normal human primary dermal fibroblasts; test: Antiproliferative activity, MTS assay, healthy fibroblasts; type: cell-based; conditions: 48 h exposure, healthy human cells
Protocol: as §1, §2

A2780 cell line = test: Autophagy induction, flow cytometry; type: cell-based, human; conditions: A2780, 48 h; complexes at IC50, DOX 0.4 μM, cisplatin 5 μM; rapamycin 500 nM for 15 h
Protocol: The autophagy induced by complexes 2–4 was evaluated using the Autophagy Assay Kit (ab139484, Abcam, Cambridge, United Kingdom) according to the manufacturer’s instructions. For this, the A2780 cell line was seeded at a density of 2 × 10^5 cells/well in 6-well plates and incubated for 24 h at the conditions mentioned before. […] The positive control Rapamycin at 500 nM was incubated for only 15 h. After 48 h incubation, the cells were washed with PBS 1×, detached with TE, and treated with the Autophagy detection kit (Abcam, Cambridge, UK) according to the manufacturer’s instructions. The evaluation of autophagy induction was done through the Attune acoustic focusing flow cytometer (ThermoFisher Scientific) and respective software.

A2780 cells = test: Cell cycle progression (PI flow cytometry, double thymidine block); type: cell-based, human; conditions: A2780, 24 h; complexes at IC50, DOX 0.4 μM, cisplatin 5 μM
Protocol: The interference of the copper complexes 2–4 in the cell cycle progression was evaluated in A2780 cells, seeded in 6-weel plates, with a density of 2 × 10^5 cells/well, and incubated for 8 h at the same conditions as described above. After that incubation time, the cells were synchronized in early S-phase with a 2 mM thymidine solution (Sigma, St. Louis, USA) for a 16 h period. Media with thymidine was replaced by fresh media and, after 8 h, another 2 mM thymidine solution was added to the wells (double thymidine block) and incubated for 16 h. […] Cells were incubated for 9, 18, or 24 h, and, at each hour, the cells were treated with TE and centrifuges at 650 × g for 5 min at 4 °C. The pellet was resuspended in PBS 1× and centrifuged at 3000 × g for 5 min at 4 °C. Later, the pellet was resuspended in 100 μL of PBS 1×, and 1 mL of a solution of 80% (v/v) ethanol was gently added to the cells. Cells were stored at 4 °C for at least 12 h and then centrifuged for 10 min at 7500 × g at 4 °C, treated with 250 μL of 50 μg/mL RNase A, and incubated for 30 min at 37 °C. After incubation, 100 μL of PI (25 μg/mL) was added to the cells as well as 650 μL of PBS 1×. The DNA content was evaluated on an Attune Acoustic Focusing Flow Cytometer (ThermoFisher Scientific) and results were analyzed by the respective software.

DNA of A2780 cells = test: Single-cell gel electrophoresis (comet assay); type: cell-based, human; conditions: A2780; complexes 10× IC50 for 12 h; H2O2 0.05% for 30 min at RT
Protocol: A2780 cells were seeded in 6-well plates with a density of 1 × 10^6 cells/well and incubated for 24 h in an incubator with a humidified atmosphere at 5% (v/v) CO2 and 37 °C. […] The complexes and DMSO were incubated at 37 °C for 12 h and H2O2 for 30 min at RT. Cells were harvested with a cell scraper and solutions with 1 × 10^5 cells/mL in PBS were prepared. It was withdrawn 10 μL from the solutions and added to 90 μL of 1.5% (w/v) low melting point agarose in 1× PBS and dropped on the slides prepared previously with a coating of 1.5% (w/v) agarose (normal melting point agarose) in 1× TAE buffer. After drying at 4 °C for 15 min, the slides were dipped into lysis solution (450 mM NaCl, 3.72% EDTA, 5 mM Tris; to which 10% (v/v) DMSO and 1% (v/v) Triton-X were added just before use) for 1 h at 4 °C, followed by their being dipped for 40 min into cold electrophoresis solution (1 mM EDTA, 300 mM NaOH, pH 13). Electrophoresis was performed at 4 °C for 30 min at 25 V using a Sub-Cell model 96 apparatus (Bio-Rad). Afterward, slides were placed in 0.1 M Tris–HCl buffer (pH 7.5) at 4 °C for 15 min for neutralization, followed by 15 min in methanol at 4 °C and drying at 37 °C. For visualization of comets, slides were hydrated with distilled water at 4 °C for 30 min, stained with 20 μL of GelRed working solution (3×), and covered with new coverslips. The slides were observed under a Ti–U Eclipse inverted microscope (Nikon Instruments, Japan) and analyzed by CometScore version 2.1 (TriTek). About 100 cells per sample were analyzed. The percentage of DNA in the tail was used as a measure of the total DNA strand breakage.

[4] = system: MDA-MB-231 (human breast cancer) cell line; test: Antiproliferative activity, MTS assay, MDA-MB-231; type: cell-based; conditions: 48 h exposure
Protocol: as §1, §2

[5] = Octanol-water partition coefficient, shake-flask method; type: physicochemical; conditions: room temperature
Protocol: The lipophilicity of the CoCp complexes was estimated by the shake-flask method.[54] Before the assays, n-octanol was vigorously mixed with distilled water for 24 h at room temperature to promote solvent saturation of both phases. After separating the phases, the complexes were dissolved in the n-octanol phase to obtain solutions 1.0 × 10^–5 to 2.5 × 10^–4 M. Then, each solution was equilibrated with water for 4 h in a mechanical shaker, at a phase ratio of 2 mL n-octanol:2 mL water. Afterward, the aqueous and octanol layers were carefully separated by centrifugation (5000 rpm, 10 min), and the UV–vis absorption spectra of the complexes were recorded in the n-octanol phase. For each sample, the concentration was determined by using a calibration curve in n-octanol. All experiments were performed in triplicate for each complex, being the averages used for calculation purposes. Finally, the values of the partition coefficients were calculated by resorting to the following eq (eq 1): [drawing 1] 1 where logPoct/water represents the octanol–water partition coefficient, [complex]oct represents the concentration of the complex in the n-octanol phase, and [complex]water represents the concentration of the complex in the water phase.

[6] = system: MCF-7 (human breast cancer) cell line; test: Antiproliferative activity, MTS assay, MCF-7; type: cell-based; conditions: 48 h exposure, MTS assay
Protocol: as §1, §2

SMILES	Selectivity index (SI) of ligands, A2780 [2]	IC50 ([1]; Homo sapiens, HCT-116)	IC50 ([2]; Homo sapiens, A2780)	IC50 ([3]; Fibroblast)	further results
O=[C]=[Co]([I])([I])[CH]1C=CC=C1 [[CoCp(CO)I2]]	1.7				IC50 [1]: > 50 µM; IC50 [2]: 29.9 ± 0.1 µM; IC50 [3]: > 50 µM
CO[C@H]1C[C@@H]2CC[C@@H](C)[C@@](O)(O2)C(=O)C(=O)N2CCCC[C@H]2C(=O)O[C@H]([C@H](C)C[C@@H]2CC[C@@H](O)[C@H](OC)C2)CC(=O)[C@H](C)/C=C(\C)[C@@H](O)[C@@H](OC)C(=O)[C@H](C)C[C@H](C)/C=C/C=C/C=C/1C [rapamycin, Rapamycin, reference compound]					levels of autophagy (A2780 cell line): 72.93%
c1ccc(-c2ccccn2)nc1 [bipy, 2,2′-bipyridine]		> 50 µM	> 50 µM	> 50 µM	
c1ccc(P(c2ccccc2)c2ccccc2)cc1 [PPh3, triphenylphosphane]	1.3	> 50 µM	37.8 ± 0.1 µM	> 50 µM	
N.N.[Cl][Pt][Cl] [cisplatin, reference compound]					IC50 [1]: 15.6 ± 5.3 µM; IC50 [2]: 1.9 ± 0.2 µM; levels of autophagy (A2780 cell line): 96.7%; % of cells in the G2/M phase (A2780 cells): 31.3%
c1cnc2c(c1)ccc1cccnc12 [Phen, 1,10′-phenanthroline]	20.9	4.1 ± 0.04 µM	2.4 ± 0.05 µM	50.1 ± 0.1 µM	Selectivity index (SI) of ligands, HCT116 [1]: 12.4
Nc1cc2cccnc2c2ncccc12 [NH2phen, 5-amino-1,10′-phenanthroline]	15.2	2.3 ± 0.06 µM	1.9 ± 0.08 µM	29.9 ± 0.4 µM	Selectivity index (SI) of ligands, HCT116 [1]: 13.1
OO [hydrogen peroxide, reference compound]					% of DNA in the tail (DNA of A2780 cells): 73%
O=S(=O)([O-])C(F)(F)F.O=S(=O)([O-])C(F)(F)F.[Co+3].c1cc[cH-]c1.c1ccc(-c2ccccn2)nc1.c1ccc(P(c2ccccc2)c2ccccc2)cc1 [Complex 1, [Co(η^5-C5H5)(PPh3)(bipy)][(CF3SO3)2]]					IC50 [1]: > 50 µM; IC50 [2]: 18.1 ± 0.1 µM; IC50 [4]: > 50 µM; IC50 [3]: > 100 µM; logP (n-octanol/water partition coefficient) [5]: −0.67 ± 0.02; IC50 [6]: > 50 µM
COc1cccc2c1C(=O)c1c(O)c3c(c(O)c1C2=O)C[C@@](O)(C(=O)CO)C[C@@H]3O[C@H]1C[C@H](N)[C@H](O)[C@H](C)O1 [doxorubicin, reference compound]		0.5 ± 0.1 µM	0.1 ± 0.1 µM		levels of autophagy (A2780 cell line): 84.1%; % of cells in the G2/M phase (A2780 cells): 77.9%
Cc1ccnc(-c2cc(C)ccn2)c1 [Me2bipy, 4,4′-dimethyl-2,2′-bipyridine]	2.8	12.4 ± 0.2 µM	17.6 ± 0.1 µM	> 50 µM	Selectivity index (SI) of ligands, HCT116 [1]: 4.0; fold less cytotoxic than Phen and NH2phen ligands ([2]; free ligand, A2780 and HCT116): about 10 fold
